Assays:
[1] = biological target: RNase 1 (Escherichia coli, UniProt P21338); test: Visual detection ribonuclease assay, cleavage of Substrate by RNase 1; assay type: biochemical, E. coli; details: final dilution factors of stock 10^−2 to 10^−7; Substrate 500 nM; room temperature 10 minutes
Experimental: It is commonly accepted that fluorometry provides for high sensitivity. To be useful, the visual method must also offer high sensitivity. Assays were conducted using the method of the invention with visual detection. Substrate SEQ ID NO:30 was mixed in 1× Assay Buffer at a concentration of 500 nM (50 pmoles ODN in 100 ul volume) in thin-walled, UV transparent tubes. […] Dilutions of stock RNase A, RNase 1, and RNase T1 were made in water. Undiluted and diluted nuclease (1 ul) was added to respective 100 ul Assay Mixes resulting in final dilution factors of 10^−2, 10^−3, 10^−4, 10^−5, 10^−6, and 10^−7. Assays were incubated at room temperature for 10 minutes and visually examined for fluorescence emission with UV excitation. […] The experiment took about 30 minutes to perform, including 15 minutes to set-up serial dilutions, 10 minutes incubation, and 5 minutes to visualize and photograph. Thus the method of the invention allows for a rapid, simple, and convenient visual assay for the presence of ribonuclease activity.

[2] = biological target: T1, RNase A (Bos taurus, UniProt P61823); test: Fluorometric detection nuclease assay, RNase A; assay type: biochemical, mammalian; details: Substrate 50 nM
T1 sequence (P61823 27-150): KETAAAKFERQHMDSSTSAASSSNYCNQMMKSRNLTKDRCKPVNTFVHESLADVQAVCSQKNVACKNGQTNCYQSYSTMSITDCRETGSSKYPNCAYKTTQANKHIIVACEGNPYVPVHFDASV
Experimental: Nuclease assays were conducted using the method of the invention. SEQ ID NO:2 and SEQ ID NO:3 oligonucleotides were individually mixed in 1× Assay Buffer at a concentration of 50 nM (150 pmoles oligonucleotide in 3 mls volume). […] Assays were set up directly in cuvettes as follows:
Assay Mixes were incubated at 37° C. for 1 hour. Fluorescence emission spectra were measured using a PTI fluorometer with 490 nm excitation. Substrate SEQ ID NO:2 (having chimeric RNA-DNA composition) reacted with both DNase I (undesired) and RNase A (desired).
(§1) Nuclease assays were conducted using the method of the invention. The Substrate (SEQ ID NO:30) was mixed in 1× Assay Buffer at a concentration of 50 nM (150 pmoles oligonucleotide in 3 mls volume). Test nucleases were added to respective Assay Mixes, including 1 ul of RNase A (1 ug), 1 ul of RNase 1 (100 units), or 1 ul of RNase T1 (1000 units). […] Assays were set up directly in cuvettes as follows:
(§2) Assay Mixes were incubated at 37° C. for 1 hour. Assays were transferred to cuvettes and fluorescence emission at 520 nm was measured using a PTI fluorometer with 490 nm excitation. Substrate SEQ ID NO:30, a preferred Substrate of the invention, reacted with (i.e., detected) all three RNase enzymes, verifying that Substrate compositions of the invention are sensitive to a variety of RNase enzymes.
Substrate SEQ ID NO:30 was mixed in 1× Assay Buffer at a concentration of 50 nM (150 pmoles oligonucleotide in 3 mls volume). RNase A was added at final concentrations of 10 ng/ml, 2 ng/ml, 1 ng/ml, and 0.4 ng/ml. […] Assay mixes were incubated at 37° C. in a cuvette directly in a PTI fluorometer. Fluorescence emission at 520 nm with 490 nm excitation was measured over time. At high nuclease concentrations, the reaction goes rapidly to completion. At lower nuclease concentrations, the reaction rate decreases but with longer incubation times an easily detectable signal is generated. Substrate concentration is fixed and input enzyme (i.e., the test sample) varies. Since the background is stable (monitored in the control reaction), use of extended incubation periods will increase the sensitivity of the assay.
Assays were conducted using the method of the invention with fluorometric detection. Substrate SEQ ID NO:30 was mixed in 1× Assay Buffer at a concentration of 50 nM (50 pmoles ODN in 1.0 ml volume) in RNase-free disposable cuvettes. […] Dilutions of stock RNase A, RNase 1, and RNase T1 were made in water. Undiluted and diluted nuclease (1 ul) was added to respective 1.0 ml Assay Mixes resulting in final dilution factors of 10^−3, 10^−4, 10^−5, 10^−6, 10^−7, 10^−8, and 10^−9. Assays were incubated at 37° C. for 1 hour and examined for fluorescence emission at 520 nm using 490 nm excitation in a PTI fluorometer. Final enzyme concentration reported notes the lowest concentration tested that was reproducibly positive with a signal:noise ratio of at least 2:1.

[3] = biological target: RNase T1 (Aspergillus oryzae, UniProt P00651); test: Fluorometric detection nuclease assay, RNase T1; assay type: biochemical; details: Substrate 50 nM, 37° C. 1 hour
Experimental: as §1, §2
Assays were conducted using the method of the invention with fluorometric detection. Substrate SEQ ID NO:30 was mixed in 1× Assay Buffer at a concentration of 50 nM (50 pmoles ODN in 1.0 ml volume) in RNase-free disposable cuvettes. […] Dilutions of stock RNase A, RNase 1, and RNase T1 were made in water. […] Assays were incubated at 37° C. for 1 hour and examined for fluorescence emission at 520 nm using 490 nm excitation in a PTI fluorometer. […]

Sequence of RNase T1 (P00651 27-130): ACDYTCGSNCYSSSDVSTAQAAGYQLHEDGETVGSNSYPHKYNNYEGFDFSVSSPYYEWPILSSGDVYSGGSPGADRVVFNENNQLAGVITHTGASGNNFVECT
Sequence of RNase 1 (P21338 24-268): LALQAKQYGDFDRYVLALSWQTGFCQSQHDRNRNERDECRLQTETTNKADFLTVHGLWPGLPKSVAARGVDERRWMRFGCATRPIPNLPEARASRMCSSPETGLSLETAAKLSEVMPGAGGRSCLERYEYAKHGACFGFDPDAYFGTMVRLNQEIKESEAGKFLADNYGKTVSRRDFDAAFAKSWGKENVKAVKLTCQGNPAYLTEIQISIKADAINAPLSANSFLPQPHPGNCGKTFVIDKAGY

With “5′ Fluorescein-AauggcA-QSY-7 3′ (NAAUGGCAN; 5' fluorescein and 3' QSY-7 labels, nucleotide chemistry not given here) [SEQ ID NO:30]” the “Detection of RNase 1 activity by visual examination” value [1] was “clearly detectable”, the “Reactivity with RNase A (fluorometer)” value ([2]; RNase A 0.33 ug/ml, 37° C. 1 hour, 490 nm excitation) was “reacted” and the “Assay background (hydrolysis of the Substrate) over time” value ([2]; control reaction without ribonuclease, 1× Assay Buffer, 37° C.) was “stable”. The “Enzyme Concentration, lowest tested reproducibly positive with signal:noise at least 2:1, RNase A” value ([2]; fluorometric detection, 37° C. 1 hour, dilution factor 10^−8) was 10 pg/mL, the “Reactivity with RNase T1 (fluorometer)” value ([3]; RNase T1 333 units/ml, emission 520 nm, 490 nm excitation) was “reacted” and the “Enzyme Concentration, lowest tested reproducibly positive with signal:noise at least 2:1, RNase T1” value ([3]; fluorometric detection, dilution factor 10^−8) was 0.00001 units/ml.
